Results from patent US9187490B2, “Dimeric IAP inhibitors” (TetraLogic Pharmaceuticals Corporation, priority 2005, dated 2015).
Like-named read-outs stand apart in the source and are kept apart here.

Biological target: T1, XIAP-BIR3 (Homo sapiens, UniProt P98170)
T1 construct: 40 nM of XIAP-BIR3 for 15 min at RT
Test: XIAP BIR-3 fluorescence polarization binding assay
Conditions: read-out: KD Range
Description: Following incubation, the polarization values (mP) were measured on a Victor^2V using a 485 nm excitation filter and a 520 nm emission filter. IC50 values were determined from the plot using nonlinear least-squares analysis using GraphPad Prism.

[1] = 5 nM AbuRPF-K(5-Fam)-NH2, 40 nM XIAP-BIR3, 15 min RT, pH 7.5

T1 sequence (P98170 241-356 limits assumed): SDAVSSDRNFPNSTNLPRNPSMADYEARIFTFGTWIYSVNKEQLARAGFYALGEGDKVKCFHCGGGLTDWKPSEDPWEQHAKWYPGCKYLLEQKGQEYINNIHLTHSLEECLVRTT

| Structure (SMILES) | Kd [1] [nM] | Kd (Example 4 series) [nM] |
| --- | --- | --- |
| CN[C@@H](C)C(=O)N[C@H](C(=O)N1C[C@@H](O)C[C@H]1Cc1c(-c2ccc(-c3[nH]c4cc(F)ccc4c3C[C@@H]3C[C@H](O)CN3C(=O)[C@@H](NC(=O)[C@H](C)NC)C(C)C)cc2)[nH]c2cc(F)ccc12)C(C)C [Entry 29] | < 100 | – |
| CN[C@@H](C)C(=O)N[C@H](C(=O)N1CCC[C@H]1Cc1c(-c2ccc(-c3[nH]c4cc(F)ccc4c3C[C@@H]3CCCN3C(=O)[C@@H](NC(=O)[C@H](C)NC)[C@@H](C)OCc3ccccc3)cc2)[nH]c2cc(F)ccc12)[C@@H](C)O [Entry 32] | < 100 | – |
| CN[C@@H](C)C(=O)N[C@H](C(=O)N1CCC[C@H]1Cc1c(-c2ccc(-c3[nH]c4cc(F)ccc4c3C[C@@H]3CCCN3C(=O)[C@@H](NC(=O)[C@H](C)NC)[C@@H](C)OCc3ccccc3)cc2)[nH]c2cc(F)ccc12)[C@@H](C)OCc1ccccc1 [Entry 33] | < 100 | – |
| CN[C@@H](C)C(=O)N[C@H](C(=O)N1C[C@@H](O)C[C@H]1Cc1c(-c2ccc(-c3[nH]c4ccccc4c3C[C@@H]3C[C@H](O)CN3C(=O)[C@@H](NC(=O)[C@H](C)NC)C(C)(C)C)cc2)[nH]c2ccccc12)C(C)(C)C [Entry 34] | < 100 | – |
| CN[C@@H](C)C(=O)N[C@H](C(=O)N1CCC[C@H]1Cc1c(-c2ccc(-c3[nH]c4ccc(F)cc4c3C[C@@H]3CCCN3C(=O)[C@@H](NC(=O)[C@H](C)NC)C(C)C)cc2)[nH]c2ccc(F)cc12)C(C)C [Entry 35] | < 100 | – |
| CN[C@@H](C)C(=O)N[C@H](C(=O)N1C[C@H](O)C[C@H]1Cc1c(-c2ccc(-c3[nH]c4ccccc4c3C[C@@H]3C[C@@H](O)CN3C(=O)[C@@H](NC(=O)[C@H](C)NC)C(C)(C)C)cc2)[nH]c2ccccc12)C(C)(C)C [Entry 36] | 100 to 1000 | – |
| CN[C@@H](C)C(=O)N[C@H](C(=O)N1C[C@H](O)C[C@H]1Cc1c(-c2ccc(-c3[nH]c4ccccc4c3C[C@@H]3C[C@@H](O)CN3C(=O)[C@@H](NC(=O)[C@H](C)NC)C(C)C)cc2)[nH]c2ccccc12)C(C)C [Entry 37] | 100 to 1000 | – |
| CN[C@@H](C)C(=O)N[C@H](C(=O)N1CCC[C@H]1Cc1c(-c2ccc(-c3[nH]c4cc(F)ccc4c3C[C@@H]3CCCN3C(=O)[C@@H](NC(=O)[C@H](C)NC)C3CCCCC3)cc2)[nH]c2cc(F)ccc12)C1CCCCC1 [Entry 38] | < 100 | – |
| C[C@H](N)C(=O)N[C@H](C(=O)N1CCC[C@H]1Cc1c(-c2ccc(-c3[nH]c4cc(F)ccc4c3C[C@@H]3CCCN3C(=O)[C@@H](NC(=O)[C@H](C)N)C3CCCCC3)cc2)[nH]c2cc(F)ccc12)C1CCCCC1 [Entry 39] | < 100 | – |
| CN[C@@H](C)C(=O)N[C@H](C(=O)N1C[C@@H](O)C[C@H]1Cc1c(-c2ccc(-c3[nH]c4ccc(F)cc4c3C[C@@H]3C[C@H](O)CN3C(=O)[C@@H](NC(=O)[C@H](C)NC)C(C)C)cc2)[nH]c2ccc(F)cc12)C(C)C [Entry 40] | 100 to 1000 | – |
| CN[C@@H](C)C(=O)N[C@H](C(=O)N1CCC[C@H]1Cc1c(-c2ccc(-c3c(C[C@@H]4CCCN4C(=O)[C@@H](NC(=O)[C@H](C)N)[C@@H](C)O)c4ccc(F)cc4n3CCO)cc2)n(CCO)c2cc(F)ccc12)[C@@H](C)O [Entry 43] | < 100 | – |
| CN[C@@H](C)C(=O)N[C@H](C(=O)N1CCC[C@H]1Cc1c(-c2ccc(-c3c(C[C@@H]4CCCN4C(=O)[C@@H](NC(=O)[C@H](C)N)[C@@H](C)O)c4ccc(F)cc4n3CCOC(C)=O)cc2)n(CCOC(C)=O)c2cc(F)ccc12)[C@@H](C)O [Entry 45] | < 100 | – |
| CN[C@@H](C)C(=O)N[C@H](C(=O)N1CCC[C@H]1Cc1c(-c2ccc(-c3c(C[C@@H]4CCCN4C(=O)[C@@H](NC(=O)[C@H](C)NC)C(C)C)c4ccc(F)cc4n3CCOC(C)=O)cc2)n(CCOC(C)=O)c2cc(F)ccc12)C(C)C [Entry 47] | < 100 | – |
| CN[C@@H](C)C(=O)N[C@H](C(=O)N1CCC[C@H]1Cc1c(-c2ccc(-c3c(C[C@@H]4CCCN4C(=O)[C@@H](NC(=O)[C@H](C)NC)[C@@H](C)O)c4ccc(F)cc4n3CCOC)cc2)n(CCOC)c2cc(F)ccc12)[C@@H](C)O [Entry 50] | < 100 | – |
| CN[C@@H](C)C(=O)N[C@H](C(=O)N1CCC[C@H]1Cc1c(-c2ccc(-c3c(C[C@@H]4CCCN4C(=O)[C@@H](NC(=O)[C@H](C)NC)C(C)C)c4ccc(F)cc4n3CCOC)cc2)n(CCOC)c2cc(F)ccc12)C(C)C [Entry 52] | < 100 | – |
| COCCn1c(-c2ccc(-c3c(C[C@@H]4CCCN4C(=O)[C@@H](NC(=O)[C@H](C)N)C(C)C)c4ccc(F)cc4n3CCOC)cc2)c(C[C@@H]2CCCN2C(=O)[C@@H](NC(=O)[C@H](C)N)C(C)C)c2ccc(F)cc21 [Entry 53] | < 100 | – |
| CN[C@@H](C)C(=O)N[C@H](C(=O)N1CCC[C@H]1Cc1c(-c2ccc(-c3c(C[C@@H]4CCCN4C(=O)[C@@H](NC(=O)[C@H](C)NC)[C@@H](C)O)c4cc(F)ccc4n3CCO)cc2)n(CCO)c2ccc(F)cc12)[C@@H](C)O [Entry 56] | < 100 | – |
| CN[C@@H](C)C(=O)N[C@H](C(=O)N1CCC[C@H]1Cc1c(-c2ccc(-c3c(C[C@@H]4CCCN4C(=O)[C@@H](NC(=O)[C@H](C)NC)C(C)C)c4ccc(F)cc4n3C)cc2)n(C)c2cc(F)ccc12)C(C)C [Entry 57] | < 100 | – |
| CN[C@@H](C)C(=O)N[C@H](C(=O)N1CCC[C@H]1Cc1c(-c2ccc(-c3c(C[C@@H]4CCCN4C(=O)[C@@H](NC(=O)[C@H](C)NC)[C@@H](C)O)c4ccc(F)cc4n3C)cc2)n(C)c2cc(F)ccc12)[C@@H](C)O [Entry 58] | < 100 | – |
| CNC(C)C(=O)NC(C(=O)N1CCCC1Cc1c(-c2[nH]c3cc(F)ccc3c2CC2CCCN2C(=O)C(NC(=O)C(C)NC)C(C)O)[nH]c2cc(F)ccc12)C(C)O (stereo not shown) [Entry 72] | – | < 100 |
| CN[C@@H](C)C(=O)N[C@H](C(=O)N1CCC[C@H]1Cc1c(-c2[nH]c3cc(F)ccc3c2C[C@@H]2CCCN2C(=O)[C@@H](NC(=O)[C@H](C)NC)C(C)C)[nH]c2cc(F)ccc12)C(C)C [Entry 73] | – | < 100 |
| CN[C@@H](C)C(=O)N[C@H](C(=O)N1CCC[C@H]1Cc1c(-c2[nH]c3cc(F)ccc3c2C[C@@H]2CCCN2C(=O)[C@@H](NC(=O)[C@H](C)N)C(C)C)[nH]c2cc(F)ccc12)C(C)C [Entry 74] | – | < 100 |
| CN[C@@H](C)C(=O)N[C@H](C(=O)N1CCC[C@H]1Cc1c(-c2[nH]c3ccc(F)cc3c2C[C@@H]2CCCN2C(=O)[C@@H](NC(=O)[C@H](C)NC)C(C)C)[nH]c2ccc(F)cc12)C(C)C [Entry 75] | – | < 100 |
| CN[C@@H](C)C(=O)NCC(=O)N1CCC[C@H]1Cc1c(-c2[nH]c3cc(F)ccc3c2C[C@@H]2CCCN2C(=O)CNC(=O)[C@H](C)NC)[nH]c2cc(F)ccc12 [Entry 76] | – | 100 to 1000 |
| CN[C@@H](C)C(=O)N[C@@H](C)C(=O)N1CCC[C@H]1Cc1c(-c2[nH]c3cc(F)ccc3c2C[C@@H]2CCCN2C(=O)[C@H](C)NC(=O)[C@H](C)NC)[nH]c2cc(F)ccc12 [Entry 77] | – | 100 to 1000 |

Continued, values first:

| Kd [1] [nM] | Kd (Example 4 series) [nM] | Structure (SMILES) |
| --- | --- | --- |
| < 100 | – | CN[C@@H](C)C(=O)N[C@H](C(=O)N1C[C@@H](O)C[C@H]1Cc1c(-c2ccc(-c3[nH]c4cc(F)ccc4c3C[C@@H]3C[C@H](O)CN3C(=O)[C@@H](NC(=O)[C@H](C)NC)C(C)(C)C)cc2)[nH]c2cc(F)ccc12)C(C)(C)C [Entry 30] |
| < 100 | – | CN[C@@H](C)C(=O)N[C@H](C(=O)N1C[C@@H](O)C[C@H]1Cc1c(-c2ccc(-c3[nH]c4ccc(F)cc4c3C[C@@H]3C[C@H](O)CN3C(=O)[C@@H](NC(=O)[C@H](C)NC)C(C)(C)C)cc2)[nH]c2ccc(F)cc12)C(C)(C)C [Entry 41] |
| < 100 | – | CN[C@@H](C)C(=O)N[C@H](C(=O)N1CCC[C@H]1Cc1c(-c2ccc(-c3c(C[C@@H]4CCCN4C(=O)[C@@H](NC(=O)[C@H](C)NC)[C@@H](C)O)c4ccc(F)cc4n3CCO)cc2)n(CCO)c2cc(F)ccc12)[C@@H](C)O [Entry 44] |
| < 100 | – | CN[C@@H](C)C(=O)N[C@H](C(=O)N1CCC[C@H]1Cc1c(-c2ccc(-c3c(C[C@@H]4CCCN4C(=O)[C@@H](NC(=O)[C@H](C)NC)C(C)C)c4ccc(F)cc4n3CCO)cc2)n(CCO)c2cc(F)ccc12)C(C)C [Entry 46] |
| < 100 | – | CN[C@@H](C)C(=O)N[C@H](C(=O)N1CCC[C@H]1Cc1c(-c2ccc(-c3c(C[C@@H]4CCCN4C(=O)[C@@H](NC(=O)[C@H](C)NC)C(C)(C)C)c4ccc(F)cc4n3CCOC(C)=O)cc2)n(CCOC(C)=O)c2cc(F)ccc12)C(C)(C)C [Entry 49] |
| < 100 | – | CN[C@@H](C)C(=O)N[C@H](C(=O)N1CCC[C@H]1Cc1c(-c2ccc(-c3c(C[C@@H]4CCCN4C(=O)[C@@H](NC(=O)[C@H](C)NC)C(C)(C)C)c4ccc(F)cc4n3CCOC)cc2)n(CCOC)c2cc(F)ccc12)C(C)(C)C [Entry 51] |
| < 100 | – | CN[C@@H](C)C(=O)N[C@H](C(=O)N1CCC[C@H]1Cc1c(-c2ccc(-c3c(C[C@@H]4CCCN4C(=O)[C@@H](NC(=O)[C@H](C)NC)C(C)(C)C)c4cc(F)ccc4n3CCO)cc2)n(CCO)c2ccc(F)cc12)C(C)(C)C [Entry 54] |
| < 100 | – | CN[C@@H](C)C(=O)N[C@H](C(=O)N1CCC[C@H]1Cc1c(-c2ccc(-c3c(C[C@@H]4CCCN4C(=O)[C@@H](NC(=O)[C@H](C)NC)C(C)C)c4cc(F)ccc4n3CCO)cc2)n(CCO)c2ccc(F)cc12)C(C)C [Entry 55] |
| < 100 | – | CN[C@@H](C)C(=O)N[C@H](C(=O)N1CCC[C@H]1Cc1c(-c2ccc(-c3c(C[C@@H]4CCCN4C(=O)[C@@H](NC(=O)[C@H](C)NC)C(C)(C)C)c4ccc(F)cc4n3C)cc2)n(C)c2cc(F)ccc12)C(C)(C)C [Entry 59] |
| < 100 | – | CN[C@@H](C)C(=O)N[C@H](C(=O)N1CCC[C@H]1Cc1c(-c2ccc(-c3c(C[C@@H]4CCCN4C(=O)[C@@H](NC(=O)[C@H](C)NC)C(C)C)c4ccc(F)cc4n3CCOC(C)=O)cc2)[nH]c2cc(F)ccc12)C(C)C [Entry 64] |
| < 100 | – | CN[C@@H](C)C(=O)N[C@H](C(=O)N1CCC[C@H]1Cc1c(-c2ccc(-c3c(C[C@@H]4CCCN4C(=O)[C@@H](NC(=O)[C@H](C)NC)C(C)C)c4ccc(F)cc4n3CCO)cc2)[nH]c2cc(F)ccc12)C(C)C [Entry 67] |
| 100 to 1000 | – | CN[C@H](C)C(=O)N[C@H](C(=O)N1CCC[C@H]1Cc1c(-c2ccc(-c3c(C[C@@H]4CCCN4C(=O)[C@@H](NC(=O)[C@@H](C)NC)C(C)(C)C)c4ccc(F)cc4n3CCO)cc2)[nH]c2cc(F)ccc12)C(C)(C)C [Entry 71] |
